Experimental data: patent US5449694A, “(-)-ritodrine, therapeutic compositions and use, and method of preparation” (priority 1992, dated 1995)
Like-named read-outs stand apart in the source and are kept apart here.

What was measured:
isolated rat myometrium = assay: Effect on an isolated rat myometrium preparation (oxytocin-induced contraction); design: species or system female virgin Wistar rat; details: for concentration dependence of relaxation activity: 10^-7 -10^-4 M; for IC50: read-out: concentration required for suppressing 50% of the contraction of an isolated myometrium caused by oxytocin (IC50); for minimal effective concentration: read-out: concentration at which relaxation activity was exhibited
Procedure: (§1) Effect on an Isolated Rat Myometrium Preparation
(§2) After blowing the cranium of a female virgin Wistar rat, uterus was extracted. The preparation was suspended in a Magnus tube filled with a nutrient solution (Tyrode solution) which was maintained at 36°±1° C. and saturated with a mixed gas of 95% O2 and 5% CO2. Contractile tension was measured via an isotonic transducer and recorded on a polygraph. When the spotaneous movement was stabilized, oxytocin (2×10^-2 U/ml) was administered and either (±)-ritodrine hydrochloride, (+)-ritodrine hydrochloride or (-)-ritodrine hydrochloride (10^-7 -10^-4 M) was applied to the Magnus tube to observe the variation of the contractile tension. Suppresive effect on the oxytocin-contracted uterus was expressed by the intensity of activity of (±)-ritodrine hydrochloride, (+)-ritodrine hydrochloride or (-)-ritodrine hydrochloride based on 100% of the contraction by oxytocin.

[1] = Acute toxicity test in mouse (i.v.); type: in vivo, male ICR mice; details: mouse, in vivo, iv
Procedure: (§3) Acute Toxicity Test in Mouse
(§4) (±)-Ritodrine hydrochloride, (+)-ritodrine hydrochloride or (-)-ritodrine hydrochloride was administered intravenously at a dose of 40-100 mg/kg to male ICR mice to examine their motality.

mice = assay: Acute toxicity test in mouse (i.v.); type: in vivo, male ICR mice
Procedure: as §3, §4

[2] = cited from earlier work
guinea pig = assay: Effect on vascular permeability (Evans blue dye infiltration, skin); type: in vivo, Hartley guinea pig
Procedure: Effect on Vascular Permeability
Three Hartley guinea pigs were employed. (±)-Ritodrine hydrochloride, (+)-ritodrine hydrochloride or (-) -ritodrine hydrochloride were administered intracutaneously at a dose of 10^-2 -10^-5 g/ml into the shaved rear part of the guinea pigs. Immediately after the administration, 1 ml of a 1% Evans blue solution was administered intravenously. After 30 minutes, the animals were slaughtered by exsanguination under anesthetization with excessive amount of pentobarbital sodium. The skin was peeled to observe from the internal side of the skin the extent of dye infiltration at the site where the test material was administered. The area with dye having a size ([longer diameter+shorter diameter]/2) of 5 mm or more was judged positive.

uterus in situ = assay: Effect on uterine movement in situ (oxytocin-facilitated, pregnant rat); type: in vivo, pregnant Wistar rat; details: for ED50 / minimal effective dose: Rattus norvegicus, iv; for ED50: read-out: concentration (dose) required for suppressing 50% of the increase of the uterus due to oxytocin; for minimal effective dose: read-out: dose at which suppressing effect on uterine movement was exhibited; for concentration dependence of suppressing effect: i.v., 0.05-15 mg/kg
Description: Effect on Uterine Movement in Situ
After a pregnant Wistar rat was anesthesized with urethane-α-chloralose, the abdominal part was incised along the median line and a polyethylene cylinder was inserted. The center of the uterine horn was suspended with a suture, and the uterine movement was isotonically recorded via an isotonic transducer. When the spontaneous movement of the uterus was stabilized, 50 mU/kg/min of oxytocin was infused intravenously to facilitate the movement. When the response due to oxytocin became constant, either (±)-ritodrine hydrochloride, (+)-ritodrine hydrochloride or (-)-ritodrine hydrochloride (0.05-15 mg/kg) was administered intravenously to observe the variation of tension and frequency and amplitude of the spontaneous movement. The suppressing effect of the uterine movement on respective parameters was expressed as the intensity of the activity by either (±)-ritodrine hydrochloride, (+)-ritodrine hydrochloride or (-)-ritodrine hydrochloride based on the state facilitated by oxytocin as 100%. The variations of the tension, and the frequency and amplitude of the spontaneous movement are shown in Tables 2, 3 and 4, respectively. […] In either parameter, the (-)-isomer was effective in a concentration of 1/2-1/3 to the (±)-isomer. The (+)-isomer was effective at a dose of 1.5 mg/kg or more.

[3] = test system: guinea pig tracheal smooth muscle; assay: Effect on an isolated preparation of tracheal muscle in guinea pig (relaxation); design: species or system Hartley guinea pig; details: for relaxation response of tracheal muscle: 10^-8 -10-4M; for IC50: Cavia porcellus, read-out: concentration required for relaxing 50% of the maximum relaxation effect (IC50); for sequence of intensities of relaxation activity: decreasing sequence
Procedure: (§5) Effect on an Isolated Preparation of Tracheal Muscle in Guinea Pig
After Hartley guinea pigs having body weight of 430-510 g, were anesthesized with ether, tracheae were excised to make chain preparation according to the method of Akcasu (A. Akcasu, Arch. Int. Pharmacodyn., 1959, 122, 201). The preparations were suspended in a Magnus tube filled with an air-saturated nutrient solution (Tyrode solution) maintained at 37°±1° C. Contractile tension was measured via an isotonic transducer and recorded on a polygraph. Either (±)-ritodrine hydrochloride, (+)-ritodrine hydrochloride or (-)-ritodrine hydrochloride was cumulatively applied so as the concentration in the Magnus tube to be 10^-8 -10-4M.

[4] = test system: smooth muscle (myometrium and tracheal muscle); assay: Smooth muscle relaxation activity, myometrium and tracheal muscle taken together; design: species or system rat, guinea pig; details: from the activities on myometrium and tracheal muscle
Procedure: as §1, §2, §5
After Hartley guinea pigs having body weight of 430-510 g, were anesthesized with ether, tracheae were excised to make chain preparation according to the method of Akcasu (A. Akcasu, Arch. Int. Pharmacodyn., 1959, 122, 201). […] Contractile tension was measured via an isotonic transducer and recorded on a polygraph. […]

[5] = Rattus norvegicus, oxytocin 2×10^-2 U/ml, hydrochlorides applied, Tyrode solution 36°C
[6] = oxytocin-contracted isolated rat myometrium
[7] = acute toxicity, range stated for all three types, read-out: 50% lethal dose (LD50)
[8] = mice, confidence limits given, read-out: LD50 (Confidence limit)
[9] = oxytocin 50 mU/kg/min i.v. infusion
[10] = tension, frequency and amplitude of spontaneous movement
[11] = hydrochlorides, cumulative application, Tyrode solution 37°C

Compound	concentration dependence of relaxation activity (isolated rat myometrium)	IC50 (isolated rat myometrium; [5])	minimal effective concentration (isolated rat myometrium; [6])	LD50 [1, 7]	LD50 [1, 8]	mortality at 50 mg/kg (mice; i.v., dead/total)	mortality at 60 mg/kg (mice; i.v., dead/total)	mortality at 70 mg/kg (mice; i.v., dead/total)	mortality at 80 mg/kg (mice; i.v., dead/total)	mortality at 90 mg/kg (mice; i.v., dead/total)	sequence of safeties in developing the same level of relaxation effect on smooth muscle (mice; mouse, in vivo)	vascular permeability, positive at 0.001% (guinea pig; guinea pig)	vascular permeability, positive at 0.01% (guinea pig; guinea pig)	vascular permeability, positive at 0.1% (guinea pig; guinea pig)	ED50 (uterus in situ; [9])	minimal effective dose (uterus in situ; [10])	concentration dependence of suppressing effect (uterus in situ)	relaxation response of tracheal muscle [3]	IC50 [3, 11]	sequence of intensities of relaxation activity [3]	further results
C[C@H](NCCc1ccc(O)cc1)[C@H](O)c1ccc(O)cc1 (relative stereo) [(±)-isomer, (±)-erythro-1-(p-hydroxyphenyl)-2-[2-(p-hydroxyphenyl)ethylamino]-1-propanol]	increased depending on the concentration	3530 nM	0.1 µM	50 to 100 mg/kg	83 mg/kg	0/5	0/5	1/5	2/5	4/5	(-)-type>(±)-type>>(+)-type	0/3	0/3	3/3	0.106 mg/kg	≥ 0.05 mg/kg	increased depending on the concentration	relaxation response depending on concentration	136 nM	(-)-isomer>(±)-isomer>>(+)-isomer	mortality at 100 mg/kg (mice; i.v., 100 mg/kg, dead/total): 4/5; side effects ([2]; background): increase in heart rate; effectiveness in preventing premature birth / suppressing uterine contraction ([2]; known from Japanese Patent Publications): effective in preventing premature birth owing to its excellent activity for suppressing uterine contraction; vascular permeability, positive at 1% (guinea pig; guinea pig): 3/3
C[C@@H](NCCc1ccc(O)cc1)[C@@H](O)c1ccc(O)cc1 [(+)-isomer]	–	54600 nM	≥ 10 µM	50 to 100 mg/kg	70 mg/kg	0/5	1/5	2/5	4/5	5/5	(-)-type>(±)-type>>(+)-type	0/3	1/3	3/3	3.61 mg/kg	≥ 1.5 mg/kg	–	relaxation response depending on concentration	5610 nM	(-)-isomer>(±)-isomer>>(+)-isomer	intensity of activity relative to (±)-ritodrine, by IC50 on isolated myometrium (isolated rat myometrium): 1/15; relaxation intensity relative to (±)-ritodrine, by IC50 on isolated tracheal muscle [3]: about 1/40
C[C@H](NCCc1ccc(O)cc1)[C@H](O)c1ccc(O)cc1.Cl [(-)-isomer, (1R,2S)-2-(4-Hydroxyphenethylamino)-1-(4-hydroxyphenyl)-1-propanol hydrochloride]	increased depending on the concentration	–	–	50 to 100 mg/kg	64 mg/kg	1/5	3/5	3/5	3/5	5/5	–	–	–	–	–	–	increased depending on the concentration	relaxation response depending on concentration	–	(-)-isomer>(±)-isomer>>(+)-isomer	smooth muscle relaxation activity relative to the (±)-type [4]: 2-3 times; minimal effective concentration (isolated rat myometrium; Rattus norvegicus): 0.1 µM; IC50 (isolated rat myometrium; Rattus norvegicus): 1350 nM; intensity of activity relative to (±)-ritodrine, by IC50 on isolated myometrium (isolated rat myometrium): about 2.6 times; mortality at 40 mg/kg (mice; i.v., 40 mg/kg, dead/total): 0/5; sequence of safeties in developing the same level of relaxation effect on smooth muscle (mice; ratio of smooth muscle relaxation to lethal toxicity, decreasing sequence): (-)-type>(±)-type>>(+)-type; vascular permeability, positive at 0.001% (guinea pig; intracutaneous, 0.001%, positive = dye area 5 mm or more, positive/total): 0/3; vascular permeability, positive at 0.01% (guinea pig; intracutaneous, 0.01%, positive = dye area 5 mm or more, positive/total): 1/3; vascular permeability, positive at 0.1% (guinea pig; intracutaneous, 0.1%, positive = dye area 5 mm or more, positive/total): 2/3; vascular permeability, positive at 1% (guinea pig; intracutaneous, 1%, positive = dye area 5 mm or more, positive/total): 3/3; ED50 (uterus in situ): 0.059 mg/kg; minimal effective dose (uterus in situ): ≥ 0.05 mg/kg; IC50 [3]: 59.7 nM; relaxation intensity relative to (±)-ritodrine, by IC50 on isolated tracheal muscle [3]: about 2.3 times
